These results are taken from PMC2572998, “Structures of the Signal Recognition Particle Receptor from the Archaeon Pyrococcus furiosus: Implications for the Targeting Step at the Membrane” (PLoS ONE, 2008).

This experiment has as its target T1, Pfu-FtsY (Pyrococcus furiosus, UniProt Q8U051).
T1 construct: full-length; N-terminal hexahistidine tag (pET28b, thrombin-cleavable) removed; expressed in E. coli BL21(DE3)-rosetta2; calculated mass 35,810 Da; monomer
T1 sequence (Q8U051 1-322): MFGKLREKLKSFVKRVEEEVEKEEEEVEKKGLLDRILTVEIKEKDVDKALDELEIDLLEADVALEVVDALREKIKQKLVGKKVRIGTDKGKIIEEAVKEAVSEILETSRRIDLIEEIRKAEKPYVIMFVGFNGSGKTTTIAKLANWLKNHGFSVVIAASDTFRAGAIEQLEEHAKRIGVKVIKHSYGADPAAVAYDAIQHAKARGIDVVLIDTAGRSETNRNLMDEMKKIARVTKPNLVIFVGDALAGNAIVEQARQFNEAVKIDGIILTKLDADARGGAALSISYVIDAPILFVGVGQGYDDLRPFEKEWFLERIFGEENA
Nature of the experiment: X-ray crystal structure, […] Å. Type of experiment: binding. The conditions noted are these: Mg2+; co-crystallised with 10 mM GTP (hydrolysed to GDP), pH 8.0; catalytic site at full occupancy; additional external GDP at crystal contact near insertion box domain (second site, 69% occupancy).

As to `Nc1nc2c(ncn2[C@@H]2O[C@H](COP(=O)(O)OP(=O)(O)O)[C@@H](O)[C@H]2O)c(=O)[nH]1` [GDP], the “X-ray crystal structure, 2.0 Å” value was “the crystal structure we obtained showed the presence of GDP•magnesium bound in the catalytic site”.
